# Measured values taken from patent publication US20180194762A1 (Pharmacyclics LLC, priority 2017, published 2018).
# Where two headings read alike, the source gives them in different places.
# Columns and labels:
# Assay type in all cases: biochemical
# Btk = biological target: T1, Btk (Homo sapiens, UniProt Q06187); assay: Btk in vitro inhibitory activity (one of Method A TR-FRET, Method B electrophoretic mobility shift, Method C radiometric filter binding)
# T1 construct: purified from insect cells as a full-length construct containing a N-terminal 6X-His tag; His6 (N); made in house; host or cells: insect cells (Method C)
# Description: Example 62a: Btk In Vitro Inhibitory Activity (Method A)
# Btk kinase activity is determined using a time-resolved fluorescence resonance energy transfer (TR-FRET) methodology. Measurements are performed in a reaction volume of 50 μL using 96-well assay plates. […] The reaction is quenched by the addition of 1.2 equivalents of EDTA (relative to divalent cation) in 25 μL of 1× Lance buffer (Perkin-Elmer). Streptavidin-APC (Perkin-Elmer) and Eu-labeled p-Tyr100 antibody (Perkin-Elmer) in 1× Lance buffer are added in a 25 μL volume to give final concentrations of 100 nM and 2.5 nM, respectively, and the mixture is allowed to incubate for one hour. The TR-FRET signal is measured on a multimode plate reader with an excitation wavelength (λEx) of 330 nm and detection wavelengths (λEm) of 615 and 665 nm. Activity is determined by the ratio of the fluorescence at 665 nm to that at 615 nm. For each compound, enzyme activity is measured at various concentrations of compound. Negative control reactions are performed in the absence of inhibitor in replicates of six, and two no-enzyme controls are used to determine baseline fluorescence levels. Inhibition constants, Ki(app), were obtained using the program BatchKi (Kuzmic et al. (2000), Anal. Biochem. 286:45-50). IC50s are obtained according to the equation:
# IC50={Ki(app)/(1+[ATP]/Km^ATP)}+[E]total/2;
# For all kinases, [ATP]=Km^ATP, [Btk]total=0.5 nM and [Lck]total=6 nM.
# Example 62b: Btk In Vitro Inhibitory Activity (Method B)
# Kinase activity is measured in vitro using electrophoretic mobility shift assay. The kinase reactions are assembled in a total volume of 25 μL in 384 well plates. The reactions comprise: BTK enzyme (1 nM, N-terminal His6-tagged, recombinant, full-length, human BTK purified from baculovirus Sf21 insect cell system, 293HEK, or other suitable source), inhibitor, ATP, fluorescently labeled peptide substrate (1 μM, FAM-GEEPLYWSFPAKKK-NH2) in a reaction buffer composed of 100 mM HEPES, pH7.5, 5 mM MgCl2 1 mM DTT, 0.1% bovine serum albumin, 0.01% Triton X-100, and 1% DMSO. The reaction is incubated and is quenched by the addition of termination buffer (100 mM HEPES, pH 7.5, 0.01% Triton X-100, 30 mM EDTA). The terminated reactions are analyzed using a 12 channel LabChip® 3000 microfluidic detection instrument (Caliper Life Sciences). The enzymatic phosphorylation of the peptide results in a change in net charge, enabling electrophoretic separation of product from substrate peptide. As substrate and product peptides are separated, two peaks of fluorescence are observed. Change in the relative fluorescence intensity of the substrate and product peaks is the parameter measured, reflecting enzyme activity. In the presence of an inhibitor, the ratio between product and substrate is altered: the signal of the product decreases, while the signal of the substrate increases.
# Activity in each sample is determined as the product to sum ratio (PSR):P/(S+P), where P is the peak height of the product peptide and S is the peak height of the substrate peptide. For each compound, enzyme activity is measured at various concentrations (12 concentrations of compound spaced by 3× dilution intervals). Negative control samples (0%—inhibition in the absence of inhibitor) and positive control samples (100%—inhibition, in the presence of 20 mM EDTA) are assembled in replicates of four and are used to calculate %—inhibition values for each inhibitor at each concentration. Percent inhibition (Pinh) is determined using following equation:
# Pinh=(PSR0%−PSRinh)/(PSR0%−PSR100%)*100, where PSRinh is the product sum ratio in the presence of inhibitor, PSR0% is the average product sum ration in the absence of inhibitor and PSR100% is the average product sum ratio in 100%—inhibition control samples.
# The IC50 values of inhibitors are determined by 4 parameter sigmoidal dose-response model fitting of the inhibition curves (Pinh versus inhibitor concentration) using XLfit 4 software. […]
# TEC = biological target: T2, TEC (Homo sapiens, UniProt P42680); assay: Inhibition of a panel of kinases (in vitro HotSpot kinase assay, 33P-ATP, 1 μM ATP); conditions: for IC50: HotSpot kinase assay, 1 μM ATP; for TEC/Btk: ratio of TEC IC50 to Btk IC50 (selectivity)
# T2 sequence (P42680 1-631): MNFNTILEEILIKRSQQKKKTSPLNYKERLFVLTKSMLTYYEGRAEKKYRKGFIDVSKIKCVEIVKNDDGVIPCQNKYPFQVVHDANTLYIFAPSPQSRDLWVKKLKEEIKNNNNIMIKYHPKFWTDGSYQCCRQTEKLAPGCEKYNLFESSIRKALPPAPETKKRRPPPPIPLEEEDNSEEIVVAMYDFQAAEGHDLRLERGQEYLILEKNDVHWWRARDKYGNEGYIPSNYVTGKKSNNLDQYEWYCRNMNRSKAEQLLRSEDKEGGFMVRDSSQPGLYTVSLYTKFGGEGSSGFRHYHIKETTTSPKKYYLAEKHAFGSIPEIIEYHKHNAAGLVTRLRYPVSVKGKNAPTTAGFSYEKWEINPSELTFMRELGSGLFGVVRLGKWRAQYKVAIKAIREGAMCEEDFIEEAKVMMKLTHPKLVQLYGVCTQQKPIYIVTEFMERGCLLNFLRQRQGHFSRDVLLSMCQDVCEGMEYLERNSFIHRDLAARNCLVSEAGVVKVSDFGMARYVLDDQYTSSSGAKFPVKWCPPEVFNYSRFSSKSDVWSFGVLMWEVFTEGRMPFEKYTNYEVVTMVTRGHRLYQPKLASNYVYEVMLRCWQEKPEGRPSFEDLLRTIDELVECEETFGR
# Description: (§1) Example 63: Inhibition of a Panel of Kinases The degree of inhibition of a panel of kinases is determined using the in vitro HotSpot kinase assay (purified enzymes, ^33P-ATP, an appropriate substrate and 1 μM ATP).
# panel of kinases = biological target: T3, panel of kinases (Homo sapiens, UniProt P51813); assay: Inhibition of a panel of kinases (in vitro HotSpot kinase assay, 33P-ATP, 1 μM ATP), other kinases; conditions: BMX wild-type, read-out: BMX-WT IC50
# T3 sequence (P51813 1-675): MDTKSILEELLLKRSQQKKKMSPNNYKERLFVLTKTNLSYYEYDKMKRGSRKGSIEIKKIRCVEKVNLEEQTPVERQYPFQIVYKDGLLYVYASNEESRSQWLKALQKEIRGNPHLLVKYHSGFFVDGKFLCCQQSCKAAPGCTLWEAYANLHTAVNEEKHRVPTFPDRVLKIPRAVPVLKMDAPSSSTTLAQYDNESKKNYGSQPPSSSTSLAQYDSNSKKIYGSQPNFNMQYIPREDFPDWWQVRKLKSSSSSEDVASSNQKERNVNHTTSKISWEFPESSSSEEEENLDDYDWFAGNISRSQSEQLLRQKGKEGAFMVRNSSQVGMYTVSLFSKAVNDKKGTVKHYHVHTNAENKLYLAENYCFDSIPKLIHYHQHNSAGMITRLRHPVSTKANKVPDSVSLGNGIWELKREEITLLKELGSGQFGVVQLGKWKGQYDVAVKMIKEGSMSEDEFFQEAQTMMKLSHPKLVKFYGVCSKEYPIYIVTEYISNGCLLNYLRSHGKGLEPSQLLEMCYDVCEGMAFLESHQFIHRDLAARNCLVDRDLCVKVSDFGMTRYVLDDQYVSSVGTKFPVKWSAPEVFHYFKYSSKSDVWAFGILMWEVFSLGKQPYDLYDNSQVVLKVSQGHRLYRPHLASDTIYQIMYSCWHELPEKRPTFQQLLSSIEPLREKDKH
# Description: as §1
# [1] = wild-type Btk, read-out: Btk-WT IC50
# T1 sequence (Q06187 whole entry): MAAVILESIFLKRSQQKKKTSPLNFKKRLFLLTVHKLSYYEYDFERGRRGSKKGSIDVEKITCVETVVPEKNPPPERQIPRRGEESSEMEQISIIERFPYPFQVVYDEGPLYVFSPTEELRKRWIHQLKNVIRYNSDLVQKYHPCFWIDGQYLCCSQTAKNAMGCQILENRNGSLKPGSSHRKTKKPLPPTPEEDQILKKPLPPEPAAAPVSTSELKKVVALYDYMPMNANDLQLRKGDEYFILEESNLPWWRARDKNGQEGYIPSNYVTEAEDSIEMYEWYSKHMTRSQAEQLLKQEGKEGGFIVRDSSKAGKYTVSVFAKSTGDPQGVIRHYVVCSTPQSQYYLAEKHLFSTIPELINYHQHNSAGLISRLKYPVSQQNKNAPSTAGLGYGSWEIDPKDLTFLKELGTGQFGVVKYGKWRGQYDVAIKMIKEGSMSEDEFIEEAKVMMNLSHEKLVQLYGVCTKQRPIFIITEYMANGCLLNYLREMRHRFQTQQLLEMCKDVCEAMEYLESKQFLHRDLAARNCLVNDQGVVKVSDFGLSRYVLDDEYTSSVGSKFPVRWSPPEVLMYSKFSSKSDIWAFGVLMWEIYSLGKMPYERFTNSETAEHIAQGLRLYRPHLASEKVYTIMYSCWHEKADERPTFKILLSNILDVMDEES
SMILES,IC50 (Btk; [1]) [nM],IC50 (TEC) [nM],"IC50 (Btk; method is one of A, B or C, not stated which, read-out: IC50 values against Btk) [nM]",TEC/Btk (TEC),IC50 (panel of kinases) [nM]
"C[C@H](NC(=O)c1noc(C(C)(C)C)n1)c1ccc(-c2ccnc3[nH]nc(N[C@@H]4CCN(C=O)C4)c23)cc1 [Example 96, 5-tert-butyl-N-[(1S)-1-[4-(3-{[(3R)-1-formylpyrrolidin-3-yl]amino}-1H-pyrazolo[3,4-b]pyridin-4-yl)phenyl]ethyl]-1,2,4-oxadiazole-3-carboxamide]",> 10000,9640,–,–,–
"C[C@@H](NC(=O)c1noc(C(C)(C)C)n1)c1ccc(-c2ccnc3[nH]nc(N[C@@H]4CCN(C=O)C4)c23)cc1 [Example 99, 5-tert-butyl-N-[(1R)-1-[4-(3-{[(3R)-1-formylpyrrolidin-3-yl]amino}-1H-pyrazolo[3,4-b]pyridin-4-yl)phenyl]ethyl]-1,2,4-oxadiazole-3-carboxamide]",4.46,1430,< 10,321,–
"C[C@@H]1[C@H](Nc2n[nH]c3nccc(-c4ccc(CNC(=O)c5noc(C(C)(C)C)n5)c(F)c4)c23)CCCN1C(=O)N1CCCC1 [Example 136, 5-tert-butyl-N-{[2-fluoro-4-(3-{[(2R,3R)-2-methyl-1-(pyrrolidine-1-carbonyl)piperidin-3-yl]amino}-1H-pyraozlo[3,4-b]pyridin-4-yl)phenyl]methyl}-1,2,4-oxadiazole-3-carboxamide]",129,7930,–,61,–
"C[C@@H]1[C@H](Nc2n[nH]c3nccc(-c4ccc(CNC(=O)c5noc(C(C)(C)C)n5)c(F)c4)c23)CCCN1C(=O)NCC(F)(F)F [Example 137, (2R,3R)-3-{[4-(4-{[(5-tert-butyl-1,2,4-oxadiazol-3-yl)formamido]methyl}-3-fluorophenyl)-1H-pyrazolo[3,4-b]pyridin-3-yl]amino}-2-methyl-N-(2,2,2-trifluoroethyl)piperidine-1-carboxamide]",> 10000,> 10000,–,–,–
"C[C@@H]1[C@H](Nc2n[nH]c3nccc(-c4ccc(CNC(=O)c5noc(C(C)(C)C)n5)c(F)c4)c23)CCCN1C(=O)CC#N [Example 139, 5-tert-butyl-N-{[4-(3-{[(2R,3R)-1-(2-cyanoacetyl)-2-methylpiperidin-3-yl]amino}-1H-pyrazolo[3,4-b]pyridin-4-yl)-2-fluorophenyl]methyl}-1,2,4-oxadiazole-3-carboxamide]",46.4,5760,–,124,–
"C[C@@H]1[C@H](Nc2n[nH]c3nccc(-c4ccc(CNC(=O)c5noc(C(C)(C)C)n5)c(F)c4)c23)CCCN1S(=O)(=O)C1CC1 [Example 141, 5-tert-butyl-N-{[4-(3-{[(2R,3R)-1-(cyclopropanesulfonyl)-2-methylpiperidin-3-yl]amino}-1H-pyrazolo[3,4-b]pyridin-4-yl)-2-fluorophenyl]methyl}-1,2,4-oxadiazole-3-carboxamide]",30,3050,–,102,–
"C[C@@H]1[C@H](Nc2n[nH]c3nccc(-c4ccc(CNC(=O)c5noc(C(C)(C)C)n5)c(F)c4)c23)CCCN1CC#N [Example 142, 5-tert-butyl-N-{[4-(3-{[(2R,3R)-1-(cyanomethyl)-2-methylpiperidin-3-yl]amino}-1H-pyrazolo[3,4-b]pyridin-4-yl)-2-fluorophenyl]methyl}-1,2,4-oxadiazole-3-carboxamide]",21.2,4170,–,197,–
"Cc1nc(C(=O)NCc2ccc(-c3ccnc4[nH]nc(N[C@@H]5CC[C@H](C)N(C(=O)N(C)C)C5)c34)cc2F)oc1C [Example 194, (2S,5R)-5-{[4-(4-{[(4,5-dimethyl-1,3-oxazole-2-carbonyl)amino]methyl}-3-fluorophenyl)-1H-pyrazolo[3,4-b]pyridin-3-yl]amino}-N,N,2-trimethylpiperidine-1-carboxamide]",–,–,–,–,4860
"CC(C)(C)c1nc(C(=O)NC2(c3ccc(-c4ccnc5[nH]nc(NC6CCCN(C=O)C6)c45)cc3)CC2)no1 (centres unmarked) [Example 271, 5-tert-butyl-N-[1-(4-{3-[(1-formylpiperidin-3-yl)amino]-1H-pyrazolo[3,4-b]pyridin-4-yl}phenyl)cyclopropyl]-1,2,4-oxadiazole-3-carboxamide]",111,5870,–,053,–
"CC(C)(C)c1nc(C(=O)NCc2ccc(-c3ccnc4[nH]nc(O[C@@H]5CCN(C=O)C5)c34)cc2F)no1 [Example 273, 5-tert-butyl-N-[(2-fluoro-4-{3-[(1-formylpyrrolidin-3-yl)oxy]-1H-pyrazolo[3,4-b]pyridin-4-yl}phenyl)methyl]-1,2,4-oxadiazole-3-carboxamide]",3.8,1090,–,287,–
"CC(=O)N[C@@H]1CCN(c2n[nH]c3nccc(-c4ccc(CNC(=O)c5ccc(C(C)(C)O)cc5F)c(F)c4)c23)C1 [Example 423, N-[(4-{3-[(3R)-3-acetamidopyrrolidin-1-yl]-1H-pyrazolo[3,4-b]pyridin-4-yl}-2-fluorophenyl)methyl]-2-fluoro-4-(2-hydroxypropan-2-yl)benzamide]",50.5,3900,–,–,–
